The target of experiment [1] is T1, NMT from rabbit adrenals (norephineprine N-methyl transferase, PNMT) (Oryctolagus cuniculus, UniProt G1TT82).
T1 construct: NMT from rabbit adrenals; from tissue; host or cells: rabbit adrenals
T1 sequence (G1TT82 1-286): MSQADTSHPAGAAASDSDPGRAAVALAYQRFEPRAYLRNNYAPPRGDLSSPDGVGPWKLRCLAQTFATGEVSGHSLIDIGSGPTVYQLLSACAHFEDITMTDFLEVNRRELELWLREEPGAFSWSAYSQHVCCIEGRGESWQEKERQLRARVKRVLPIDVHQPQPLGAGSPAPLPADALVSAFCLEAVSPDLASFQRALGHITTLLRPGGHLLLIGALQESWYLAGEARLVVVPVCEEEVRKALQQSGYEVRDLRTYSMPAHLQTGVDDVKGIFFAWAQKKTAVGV
Briefly: In vitro inhibition of N-methyl transferase (NMT) from rabbit adrenals. To be noted: for IC50: read-out: pI50 (negative reciprocal logarhithm of the 50 percent inhibitory concentration) (converted); for pIC50: series of decreasing inhibitor concentrations from 1 × 10^-4 M, read-out: 50 Inhibitory Concentration (concentration at which 50 percent inhibition of NMT is obtained). The class given is biochemical. The source says:
The compounds of this invention, either in the form of the free base, or as a pharmaceutically-acceptable acid addition salt thereof, are enzyme inhibitors. In particular, as previously stated, they are inhibitors of norephineprine N-methyl transferase [PNMT or phenethanolamine N-methyl transferase--see Axelod, J. Bio, Chem., 237, 1657 (1962)]. Compounds which inhibit the conversion of norephineprine to […], are capable of lowering a high […]-norephineprine ratio in mammals, a physiological condition frequently associated with essential hypertension. The compounds of this invention are thus capable of ameliorating the […]-norephineprine imbalance in essential hypertension, an important aspect of the treatment of this disease state. The effectiveness of the compounds as N-methyl transferase inhibitors has been measured in vitro using NMT from rabbit adrenals. […] The negative reciprocal logarhithm (pI50) of this number was also calculated as a useful index. Table 1, which follows, summarizes the information thus obtained; i.e., the determination of enzyme inhibition activity for the compounds of this invention.

The next experiment relates to catechol amine uptake. Particulars: comparison stated in the literature; cited from earlier work.

pIC50: −log10 of the molar value. Where a name gives a salt, the structure may show the parent alone. Read-outs that look alike come from different tables or passages of the source.

In the case of `NC1CCc2cc(Cl)c(Cl)cc21` (stereo not drawn) [5,6-dichloro-1-aminoindane maleate], in experiment [1], the IC50 was 4680 nM and the pIC50 is 5.53. In the case of `NC1CCc2c(Cl)cccc21` (stereo not drawn) [4-Chloro-1-aminoindane hydrochloride, 4-chloro-1-aminoindane hydrochloride], in experiment [1], the IC50 is 759 nM and the pIC50 was 6.12. Regarding `NC1Cc2ccccc2C1` [2-aminoindane], the “inhibition of catechol amine uptake, compared with 1-aminoindane” value in the experiment with catechol amine uptake is on record as “better inhibitor of catechol amine uptake than 1-aminoindane”. With `NC1CCc2ccc(Cl)c(Cl)c21` (stereo not drawn) [6,7-dichloro-1-aminoindane], in experiment [1], the IC50 is 6030 nM and the pIC50 was 5.27. The corresponding values for `NC1CCc2c1ccc(Cl)c2Cl` (stereo not drawn) [4,5-dichloro-1-aminoindane] are 200 nM and 6.70.

The values are drawn from US4096173A, “Chlorinated 1-aminoindane N-methyl transferase inhibitors” (Eli Lilly and Company, priority 1977, dated 1978).
